Measured values taken from PMC12203311, “Design, synthesis, in silico and in vitro evaluation of pyrrole–indole hybrids as dual tubulin and aromatase inhibitors with potent anticancer activities” (RSC Advances, 2025).

Legend:
[1] = test system: K-562; assay: NCI60 five-dose screen; format: cell-based; settings: Homo sapiens, K562, K-562, leukemia; for CC50: read-out: LC50 (the source's name)
[2] = test system: EKVX; assay: NCI60 five-dose screen; format: cell-based; settings: Homo sapiens, NSC lung cancer; for CC50: read-out: LC50 (the source's name)
[3] = test system: NCI-H522; assay: NCI60 five-dose screen; format: cell-based; settings: Homo sapiens, NCI-H522, NSC lung cancer; for CC50: read-out: LC50 (the source's name)
[4] = test system: HCC-2998; assay: NCI60 five-dose screen; format: cell-based; settings: Homo sapiens, HCC-2998, colon cancer; for CC50: read-out: LC50 (the source's name)
[5] = test system: HT29; assay: NCI60 five-dose screen; format: cell-based; settings: Homo sapiens, HT-29, HT29, colon cancer; for CC50: read-out: LC50 (the source's name)
[6] = test system: SW-620; assay: NCI60 five-dose screen; format: cell-based; settings: Homo sapiens, SW-620, colon cancer; for CC50: read-out: LC50 (the source's name)
[7] = test system: SF-539; assay: NCI60 five-dose screen; format: cell-based; settings: Homo sapiens, SF-539, CNS cancer; for CC50: read-out: LC50 (the source's name)
[8] = test system: SNB-19; assay: NCI60 five-dose screen; format: cell-based; settings: Homo sapiens, SNB-19, CNS cancer; for CC50: read-out: LC50 (the source's name)
[9] = test system: M14; assay: NCI60 five-dose screen; format: cell-based; settings: Homo sapiens, M14, melanoma; for CC50: read-out: LC50 (the source's name)
[10] = test system: SK-MEL-2; assay: NCI60 five-dose screen; format: cell-based; settings: Homo sapiens, SK-MEL-2, melanoma; for CC50: read-out: LC50 (the source's name)
[11] = test system: UACC-62; assay: NCI60 five-dose screen; format: cell-based; settings: Homo sapiens, UACC-62, melanoma; for CC50: read-out: LC50 (the source's name)
[12] = test system: OVCAR-3; assay: NCI60 five-dose screen; format: cell-based; settings: Homo sapiens, OVCAR-3, ovarian cancer; for CC50: read-out: LC50 (the source's name)
[13] = test system: OVCAR-5; assay: NCI60 five-dose screen; format: cell-based; settings: Homo sapiens, OVCAR-5, ovarian cancer; for CC50: read-out: LC50 (the source's name)
[14] = test system: NCI/ADR-RES; assay: NCI60 five-dose screen; format: cell-based, human; settings: Homo sapiens, ovarian cancer; for CC50: read-out: LC50 (the source's name)
[15] = test system: ACHN; assay: NCI60 five-dose screen; format: cell-based; settings: Homo sapiens, renal cancer; for CC50: read-out: LC50 (the source's name)
[16] = test system: TK-10; assay: NCI60 five-dose screen; format: cell-based; settings: Homo sapiens, TK-10, renal cancer; for CC50: read-out: LC50 (the source's name)
[17] = test system: DU-145; assay: NCI60 five-dose screen; format: cell-based; settings: Homo sapiens, DU-145, prostate cancer; for CC50: read-out: LC50 (the source's name)
[18] = test system: MCF7; assay: NCI60 five-dose screen; format: cell-based; settings: Homo sapiens, MCF7, breast cancer; for CC50: read-out: LC50 (the source's name)
[19] = test system: MDA-MB-231/ATCC; assay: NCI60 five-dose screen; format: cell-based; settings: Homo sapiens, breast cancer; for CC50: read-out: LC50 (the source's name)
[20] = test system: T-47D; assay: NCI60 five-dose screen; format: cell-based; settings: Homo sapiens, T47D, breast cancer; for CC50: read-out: LC50 (the source's name)
[21] = biological target: T1, Human CYP19 (aromatase) (Homo sapiens, UniProt P11511); assay: Aromatase inhibition assay (DBF fluorometric substrate); format: biochemical; settings: active defined as IC50 < 12.5 µM
T1 construct: purchased GENTEST, Woburn, MA 456260; host or cells: baculovirus/insect cells
T1 sequence (P11511 1-503): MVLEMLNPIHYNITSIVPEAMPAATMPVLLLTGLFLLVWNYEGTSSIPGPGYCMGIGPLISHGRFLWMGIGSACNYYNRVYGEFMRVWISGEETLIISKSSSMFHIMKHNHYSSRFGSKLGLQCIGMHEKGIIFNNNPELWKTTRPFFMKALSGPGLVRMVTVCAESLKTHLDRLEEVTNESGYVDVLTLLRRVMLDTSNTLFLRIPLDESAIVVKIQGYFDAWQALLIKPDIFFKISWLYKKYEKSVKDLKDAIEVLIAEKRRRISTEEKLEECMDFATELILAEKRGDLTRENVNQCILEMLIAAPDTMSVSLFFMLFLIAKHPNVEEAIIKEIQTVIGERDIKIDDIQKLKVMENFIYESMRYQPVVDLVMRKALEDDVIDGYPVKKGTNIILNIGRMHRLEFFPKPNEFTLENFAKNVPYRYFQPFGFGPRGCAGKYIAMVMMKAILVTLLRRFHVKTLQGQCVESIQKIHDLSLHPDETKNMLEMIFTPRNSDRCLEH
How it was run: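 Supersomes expressing human CYP19 plus oxidoreductase (baculovirus/insect cell) with fluorometric substrate DBF; cofactor mixture pre-incubated 10 min at 37 °C, reaction run 30 min at 37 °C, stopped with NaOH. Fluorescence read at ex 490/em 530 nm.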

[22] = test system: T47D breast cancer cell line; assay: Cytotoxicity MTT assay, T47D; format: cell-based, human; settings: Homo sapiens, T47D; MTT, 48 hours
How it was run: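 Cells in DMEM with 10% FBS and penicillin/streptomycin (37 °C, 5% CO2) were seeded at 10 000 per well, grown overnight, then exposed to compounds for 48 hours. MTT (0.5 mg mL^−1) was added for 3 hours, formazan dissolved in DMSO, and absorbance read at 570 nm; viability was expressed against DMSO vehicle.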

Cc1cc(C)c(/C=N/NC(=O)c2[nH]c3ccc(Br)cc3c2-c2ccccc2)[nH]1 [Derivative 3c, (E)-5-Bromo-N′-((3,5-dimethyl-1H-pyrrol-2-yl)methylene)-3-phenyl-1H-2-carbohydrazide]
GI50 [1]: 2.43 µM
CC50 [1]: > 100 µM
GI50 [2]: 3.24 µM
CC50 [2]: 35.4 µM
GI50 [3]: 2.61 µM
CC50 [3]: 32.7 µM
GI50 [4]: 3.55 µM
CC50 [4]: 37.2 µM
GI50 [5]: 3.53 µM
CC50 [5]: 46.6 µM
GI50 [6]: 3.06 µM
CC50 [6]: 42 µM
GI50 [7]: 2.93 µM
CC50 [7]: 32.4 µM
GI50 [8]: 3.86 µM
CC50 [8]: 39.4 µM
GI50 [9]: 4.45 µM
CC50 [9]: 49.9 µM
GI50 [10]: 3.37 µM
CC50 [10]: 41.7 µM
GI50 [11]: 2.36 µM
CC50 [11]: 32.4 µM
GI50 [12]: 2.53 µM
CC50 [12]: 36.4 µM
GI50 [13]: 3.63 µM
CC50 [13]: 37.6 µM
GI50 [14]: 2.11 µM
CC50 [14]: 19.3 µM
GI50 [15]: 3.03 µM
CC50 [15]: 34.2 µM
GI50 [16]: 7.32 µM
CC50 [16]: 45.2 µM
GI50 [17]: 4.07 µM
CC50 [17]: 38.9 µM
GI50 [18]: 2.3 µM
CC50 [18]: 37.2 µM
GI50 [19]: 2.78 µM
CC50 [19]: 32.8 µM
GI50 [20]: 4.68 µM
CC50 [20]: 77.6 µM
IC50 [21]: 11.1 ± 2 µM
IC50 [22]: 11.6 ± 0.3 µM

CCOC(=O)c1ccc(/C=N/NC(=O)c2[nH]c3ccc(Br)cc3c2-c2ccccc2)[nH]1 [Derivative 3i, Ethyl (E)-5-((2-(5-bromo-3-phenyl-1H-indole-2-carbonyl)hydrazono)methyl)-1H-pyrrole-2-carboxylate]
GI50 [1]: 1.08 µM
CC50 [1]: > 100 µM
GI50 [2]: 4.29 µM
CC50 [2]: > 100 µM
GI50 [3]: 0.46 µM
CC50 [3]: 82.2 µM
GI50 [4]: 2.51 µM
CC50 [4]: 36.4 µM
GI50 [5]: 2.32 µM
CC50 [5]: 22.9 µM
GI50 [6]: 3.93 µM
CC50 [6]: 53.6 µM
GI50 [7]: 1.6 µM
CC50 [7]: 26.2 µM
GI50 [8]: 2.98 µM
CC50 [8]: 62.8 µM
GI50 [9]: 2.73 µM
CC50 [9]: 71.9 µM
GI50 [10]: 2.38 µM
CC50 [10]: 55 µM
GI50 [11]: 0.614 µM
CC50 [11]: 48.5 µM
GI50 [12]: 2.63 µM
CC50 [12]: 40.7 µM
GI50 [13]: 3.43 µM
CC50 [13]: 38 µM
GI50 [14]: 0.897 µM
CC50 [14]: 9.2 µM
GI50 [15]: 1.86 µM
CC50 [15]: 73.8 µM
GI50 [16]: 6.92 µM
CC50 [16]: > 100 µM
GI50 [17]: 3.32 µM
CC50 [17]: 38.7 µM
GI50 [18]: 1.54 µM
CC50 [18]: > 100 µM
GI50 [19]: 2.63 µM
CC50 [19]: 33.2 µM
GI50 [20]: 4.2 µM
CC50 [20]: > 100 µM
IC50 [21]: 2.6 ± 0.8 µM
IC50 [22]: 11.8 ± 1.4 µM
